Numbers after ± are expanded uncertainties.
How the values were obtained:
[1] = 298.15 K; 101.33 kPa; Liquid; Vibrating tube method
[2] = Boiling temperature at pressure P; details: 101.33 kPa; Liquid; Ebulliometric method (Recirculating still)

mass density [1]	Boiling temperature at pressure P [2]	Structure (SMILES)
928.73 ± 2 kg/m3	135.47 ± 0.1 °C	CCOCCO [2-ethoxyethan-1-ol]
965.31 ± 2 kg/m3	124.52 ± 0.1 °C	COCCO [2-methoxyethan-1-ol]
766.29 ± 2 kg/m3	100.73 ± 0.1 °C	CC1CCCCC1 [methylcyclohexane]
